Reference: patent publication US4772633A, “6-pyridyl- and 6-phenyl-3-phenyl-1-hexenes and -1-hexynes, composition containing them, and insecticidal and acaricidal method of using them” (Sumitomo Chemical Company, Limited, priority 1986, dated 1988)

What was measured:
[1] = system: common mosquito (Culex pipiens pallens); test: Test Example 1: mortality of larvae and inhibition of emergence of common mosquito; format: in vivo; details: for Inhibitory ratio of emergence: 3.5 ppm, counted when all mosquitoes of no treatment group had emerged; for mortality at 3.5 ppm: Culex pipiens, 24 h, last instar larvae, after one day
Procedure: The emulsifiable concentrates of the following present compounds obtained according to Formulation example 2 were each diluted with water so as to obtain respective aqueous solutions containing 3.5 ppm of said compounds, respectively. One hundred ml of thus diluted aqueous solutions were poured into respective polyethylene cups of 180 ml volume, and 20 of the last instar larvae of common mosquito (Culex pipiens pallens) were liberated thereto. After one day, the dead or alive of the larvae were examined. Thereafter, the feed was added to respective cups and the number of emerged mosquitoes of the respective cups was counted when all the mosquitoes of no treatment group had […] to calculate the inhibitory ratios of the emergence. The mortality and the inhibitory ratio of the emergence are shown according to the following three criteria: mortality: A; 90% or more, […] inhibitory: A; 90% or more, ratio of emergence B; less than 90% to 80% C; less than 80%.

[2] = system: carmine spider mite (Tetranychus cinnabarinus); test: Test Example 8: degree of damage of kidney bean plant by carmine spider mite; format: in vivo; design: key: -: No damage is observed.; +: Slight damage is observed.; ++: The same damage as in the untreated plot is observed; details: 500 ppm, sprayed 15 ml/pot plus 2 ml to soil; after 8 days; 25° C.
Procedure: The female adults of carmine spider mite (Tetranychus cinnabarinus) were put at a rate of 10 adults/leaf on the leaves of potted kidney bean (at the primordial leaf stage) which had elapsed 7 days after sowing, and placed in a constant-temperature room kept at 25° C. After 6 days, the 200-fold aqueous dilute solutions (corresponding to 500 ppm), prepared from the emulsifiable concentrates of the following present compounds and control compounds prepared according to Formulation example 2, were each sprayed at a rate of 15 ml/pot on a turn table. At the same time, the soil in the pot was treated with 2 ml of each aqueous solution. After 8 days, the degree of damage of the plant by the mite was examined.
-: No damage is observed.
+: Slight damage is observed.
++: The same damage as in the untreated plot is observed.

SMILES | Inhibitory ratio of emergence [1] | mortality at 3.5 ppm [1] [%] | Degree of damage [2]
C#CC(CC)(CCCc1ccc(F)c(Oc2ccccc2)c1)c1ccc(Cl)cc1 (centres unmarked) [(41), 3-(4-Chlorophenyl)-3-ethyl-6-(3-phenoxy-4-fluorophenyl)-1-hexyne] | A (90% or more) | > 90 | 
C#CC(C)(CCCc1ccc(F)c(Oc2ccccc2)c1)c1ccc(OCC=C)cc1 (centres unmarked) [(8), 3-(4-Allyloxyphenyl)-3-methyl-6-(3-phenoxy-4-fluorophenyl)-1-hexyne] | A (90% or more) | > 90 | -
C#CC(C)(CCCc1cccc(Oc2ccccc2)n1)c1ccc(OC)cc1 (centres unmarked) [(44), 3-(4-methoxyphenyl)-3-methyl-6-(6-phenoxypyridin-2-yl)-1-hexyne] | A (90% or more) | 10 to 90 | 
C#CC(CCCc1ccc(F)c(Oc2ccccc2)c1)c1ccc(OCC)cc1 (centres unmarked) [(43), 3-(4-Ethoxyphenyl)-6-(3-phenoxy-4-fluorophenyl)-1-hexyne] | A (90% or more) | > 90 | - ~ +
Cc1cc(Cl)ccc1N=CN(C)C [(E), Chlordimeform, reference compound] |  |  | - ~ +
C#CC(C)(CCCc1ccc(F)c(Oc2ccccc2)c1)c1ccc2c(c1)OCO2 (centres unmarked) [(12), 3-(3,4-Methylenedioxyphenyl)-3-methyl-6-(3-phenoxy-4-fluorophenyl)-1-hexyne] | A (90% or more) | > 90 | 
C#CC(C)(CCCc1cccc(Sc2ccccc2)c1)c1ccc(OCC)cc1 (centres unmarked) [(22), 3-(4-Ethoxyphenyl)-3-methyl-6-(3-phenylthiophenyl)-1-hexyne] | A (90% or more) | 10 to 90 | 
C#CC(C)(CCCc1ccc(F)c(Oc2ccc(Cl)cc2)c1)c1ccc(OCC)cc1 (centres unmarked) [(34), 3-(4-Ethoxyphenyl)-3-methyl-6-{3-(4-chlorophenoxy)-4-fluorophenyl}-1-hexyne] | A (90% or more) | > 90 | 
C#CC(CCCc1cccc(Oc2ccccc2)c1)c1ccc(OCC)cc1 (centres unmarked) [(28), 3-(4-Ethoxyphenyl)-6-(3-phenoxyphenyl)-1-hexyne] | A (90% or more) | > 90 | 
C=CC(C)(CCCc1ccc(F)c(Nc2ccccc2)c1)c1ccc(OCC)cc1 (centres unmarked) [(31), 3-(4-Ethoxyphenyl)-3-methyl-6-(3-anilino-4-fluorophenyl)-1-hexene] | A (90% or more) | > 90 | 
C#CC(C)(CCCc1ccc(F)c(Oc2ccc(C)cc2)c1)c1ccc(OCC)cc1 (centres unmarked) [(33), 3-(4-Ethoxyphenyl)-3-methyl-6-{3-(4-methylphenoxy)-4-fluorophenyl}-1-hexyne] | A (90% or more) | > 90 | 
C#CC(C)(CCCc1cccc(Oc2ccccc2)c1)c1ccc(F)cc1 (centres unmarked) [(35), 3-(4-Fluorophenyl)-3-methyl-6-(3-phenoxyphenyl)-1-hexyne] | A (90% or more) | > 90 | 
C#CC(CC)(CCCc1cccc(Oc2ccccc2)c1)c1ccc(Cl)cc1 (centres unmarked) [(26), 3-(4-Chlorophenyl)-3-ethyl-6-(3-phenoxyphenyl)-1-hexyne] | A (90% or more) | > 90 | 
C#CC(CCCC)(CCCc1ccc(F)c(Oc2ccccc2)c1)c1ccc(OCC)cc1 (centres unmarked) [(42), 3-(4-Ethoxyphenyl)-3-n-butyl-6-(3-phenoxy-4-fluorophenyl)-1-hexyne] | A (90% or more) | 10 to 90 | 
C#CC(C)(CCCc1ccc(F)c(Oc2ccccc2)c1)c1ccc(OC)cc1 (centres unmarked) [(5), 3-(4-Methoxyphenyl)-3-methyl-6-(3-phenoxy-4-fluorophenyl)-1-hexyne] | A (90% or more) | > 90 | 
C#CC(CC)(CCCc1ccc(F)c(Oc2ccccc2)c1)c1ccc(OCC)cc1 (centres unmarked) [(29), 3-(4-Ethoxyphenyl)-3-ethyl-6-(3-phenoxy-4-fluorophenyl)-1-hexyne] | A (90% or more) | > 90 | 
C#CC(C)(CCCc1ccc(F)c(Oc2ccc(F)cc2)c1)c1ccc(OCC)cc1 (centres unmarked) [(38), 3-(4-Ethoxyphenyl)-3-methyl-6-{3-(4-fluorophenoxy)-4-fluorophenyl}-1-hexyne] | A (90% or more) | > 90 | 
C#CC(C)(CCCc1ccc(F)c(Oc2ccccc2)c1)c1ccc(OCC=C)c(Cl)c1 (centres unmarked) [(40)] | A (90% or more) | 10 to 90 | 
C#CC(C)(CCCc1cccc(Oc2ccccc2)c1)c1ccc(OC)cc1 (centres unmarked) [(24), 3-(4-Methoxyphenyl)-3-methyl-6-(3-phenoxyphenyl)-1-hexyne] | A (90% or more) | 10 to 90 | 
C#CC(C)(CCCc1ccc(F)c(Oc2ccccc2)c1)c1ccc(F)cc1 (centres unmarked) [(9), 3-(4-Fluorophenyl)-3-methyl-6-(3-phenoxy-4-fluorophenyl)-1-hexyne] | A (90% or more) | > 90 | 
C#CC(C)(CCCc1cccc(Oc2ccc(F)cc2)c1)c1ccc(OCC)cc1 (centres unmarked) [(15), 3-(4-Ethoxyphenyl)-3-methyl-6-{3-(4-fluorophenoxy)phenyl}-1-hexyne] | A (90% or more) | > 90 | 
C#CC(C)(CCCc1cccc(Oc2ccccc2)c1)c1ccc2c(c1)OCO2 (centres unmarked) [(14), 3-(3,4-Methylenedioxyphenyl)-3-methyl-6-(3-phenoxyphenyl)-1-hexyne] | A (90% or more) | > 90 | 
C#CC(C)(CCCc1ccc(F)c(Nc2ccccc2)c1)c1ccc(OCC)cc1 (centres unmarked) [(21), 3-(4-Ethoxyphenyl)-3-methyl-6-(3-anilino-4-fluorophenyl)-1-hexyne] | A (90% or more) | > 90 | 
C#CC(C)(CCCc1cccc(Oc2ccccc2)c1)c1ccc(CC)cc1 (centres unmarked) [(23), 3-(4-Ethylphenyl)-3-methyl-6-(3-phenoxyphenyl)-1-hexyne] | A (90% or more) | > 90 | 
C#CC(C)(CCCc1ccc(F)c(Oc2ccccc2)c1)c1ccc(Cl)c(Cl)c1 (centres unmarked) [(36), 3-(3,4-Dichlorophenyl)-3-methyl-6-(3-phenoxy-4-fluorophenyl)-1-hexyne] | A (90% or more) | 10 to 90 | 
C#CC(CC)(CCCc1cccc(Oc2ccccc2)c1)c1ccc(OCC)cc1 (centres unmarked) [(32), 3-(4-Ethoxyphenyl)-3-ethyl-6-(3-phenoxyphenyl)-1-hexyne] | A (90% or more) | > 90 | 
C=CC(C)(CCCc1cccc(Oc2ccccc2)n1)c1ccc(OCC)cc1 (centres unmarked) [(19), 3-(4-Ethoxyphenyl)-3-methyl-6-(6-phenoxypyridin-2-yl)-1-hexene] | A (90% or more) | 10 to 90 | 
C#CC(C)(CCCc1ccc(F)c(Cc2ccccc2)c1)c1ccc(OCC)cc1 (centres unmarked) [(30), 3-(4-Ethoxyphenyl)-3-methyl-6-(3-benzyl-4-fluorophenyl)-1-hexyne] | A (90% or more) | > 90 | 
C#CC(C)(CCCc1ccc(F)c(Oc2ccccc2)c1)c1ccc(OC(F)F)c(Cl)c1 (centres unmarked) [(27)] | A (90% or more) | 10 to 90 | 
